Non-standard residues stand in square brackets, D forms with d. Residues, ends and D or L forms follow the SMILES beside them. *: point of attachment. 6FAM = O=C1OC2(c3ccc(O)cc3Oc3cc(O)ccc32)c2cc(C(=O)*)ccc21; pT = C[C@@H](OP(=O)(O)O)[C@H](N)C(=O)O; pS = N[C@@H](COP(=O)(O)O)C(=O)O
molecular target: T1, 14-3-3ζ (Homo sapiens, UniProt P63104); assay: FP assay with GR phosphorylated peptides and 14-3-3ζ; format: binding; conditions: FITC-labeled peptide 60 nM (monophosphorylated) or 10 nM (doubly phosphorylated) titrated with 14-3-3ζ, 30 min RT, Hill fit, triplicates; read-out: Kd with 14-3-3ζ by FP
T1 construct: Full-length expression and purification of 14-3-3; made in house; host or cells: E. coli BL21 (DE3)STAR
T1 sequence (P63104 1-245): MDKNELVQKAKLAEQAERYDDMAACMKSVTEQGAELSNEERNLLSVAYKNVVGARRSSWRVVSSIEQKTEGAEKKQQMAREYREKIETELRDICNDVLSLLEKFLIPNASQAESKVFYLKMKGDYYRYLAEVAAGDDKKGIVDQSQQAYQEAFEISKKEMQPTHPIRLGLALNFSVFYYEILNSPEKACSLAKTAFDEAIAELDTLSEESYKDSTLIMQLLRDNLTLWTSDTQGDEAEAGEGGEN
Experimental: After 30-min incubation at RT, the plates were read on a plate reader PHERAstar (BMG LABTECH GmbH) for FP signal using […] and standard excitation (485 nm) and emission (520 nm). Measurements were performed as triplicates. Binding data were fit to a standard Hill equation using the software Genedata Screener. The figures were made using the software GraphPad Prism 8. FP data were expressed as millipolarization (mP) units, and the dynamic range (ΔmP) was the difference of the signals from the bound peptide and free peptide. Errors are the standard error of the fit.

Structure (SMILES)	Kd
CC(C)C[C@H](NC(=O)[C@H](CO)NC(=O)[C@@H]1CCCN1C(=O)[C@H](COP(=O)(O)O)NC(=O)[C@H](CO)NC(=O)[C@H](C)NC(=O)[C@H](CO)NC(=O)[C@@H](NC(=O)[C@H](CCCCN)NC(=O)[C@@H](N)C(C)C)C(C)C)C(=O)N[C@@H](C)C(=O)N[C@H](C(=O)N[C@@H](C)C(=O)O)C(C)C [GR_pS45] (H-VKVSAS[pS]PSLAVA-OH; N-terminus assumed)	> 150 µM
CSCC[C@H](NC(=O)[C@H](CO)NC(=O)[C@H](CC(C)C)NC(=O)[C@H](COP(=O)(O)O)NC(=O)[C@@H](NC(=O)[C@H](C)NC(=O)[C@H](CCCCN)NC(=O)[C@H](CO)NC(=O)[C@H](CC(C)C)NC(=O)[C@H](CC(=O)O)NC(=O)c1ccc2c(c1)C1(OC2=O)c2ccc(O)cc2Oc2cc(O)ccc21)C(C)C)C(=O)NCC(=O)N[C@@H](CC(C)C)C(=O)N[C@@H](Cc1ccc(O)cc1)C(=O)NCC(=O)NCC(=O)NCC(=O)NCC(=O)NCC(=O)N[C@@H](CC(N)=O)C(=O)N[C@@H](CC(C)C)C(=O)N[C@@H](CC(N)=O)C(=O)N[C@@H](CCCNC(=N)N)C(=O)N[C@@H](CO)C(=O)N[C@H](C(=O)N[C@@H](COP(=O)(O)O)C(=O)N[C@H](C(=O)N1CCC[C@H]1C(=O)N[C@@H](CCC(=O)O)C(=O)N[C@@H](CC(N)=O)C(=O)N1CCC[C@H]1C(=O)N[C@@H](CCCCN)C(=O)O)C(C)C)[C@@H](C)O [GR_pS83-pS134] (6FAM-DLSKAV[pS]LSMGLYGGGGGNLNRST[pS]VPENPK-OH; C-terminus assumed)	22 ± 8 µM
CC[C@H](C)[C@H](NC(=O)[C@H](CCC(N)=O)NC(=O)CNC(=O)[C@@H](N)CCC(N)=O)C(=O)N[C@@H](CO)C(=O)N[C@@H](CC(C)C)C(=O)N[C@@H](COP(=O)(O)O)C(=O)N[C@@H](CO)C(=O)NCC(=O)N[C@@H](CCC(=O)O)C(=O)N[C@H](C(=O)N[C@@H](CC(=O)O)C(=O)N[C@@H](CC(C)C)C(=O)O)[C@@H](C)O [GR_pS113] (H-QGQISL[pS]SGETDL-OH; N-terminus and C-terminus assumed)	> 150 µM
CC[C@H](C)[C@H](NC(=O)[C@@H](NC(=O)[C@H](CCCCN)NC(=O)CNC(=O)CNC(=O)CNC(=O)CNC(=O)CNC(=O)[C@H](CCCCN)NC(=O)[C@@H]1CCCN1C(=O)[C@H](CC(N)=O)NC(=O)[C@H](CCC(=O)O)NC(=O)[C@@H]1CCCN1C(=O)[C@@H](NC(=O)[C@H](COP(=O)(O)O)NC(=O)[C@@H](NC(=O)[C@H](CO)NC(=O)[C@H](CCCNC(=N)N)NC(=O)[C@H](CC(N)=O)NC(=O)[C@H](CC(C)C)NC(=O)[C@H](CC(N)=O)NC(=O)c1ccc2c(c1)C1(OC2=O)c2ccc(O)cc2Oc2cc(O)ccc21)[C@@H](C)O)C(C)C)[C@@H](C)O)C(=O)N[C@H](C(=O)N1CCC[C@H]1C(=O)N[C@@H](C)C(=O)N[C@H](C(=O)N[C@@H](CC(C)C)C(=O)N1CCC[C@H]1C(=O)N[C@@H](CCC(N)=O)C(=O)N[C@@H](CC(C)C)C(=O)N[C@H](C(=O)N1CCC[C@H]1C(=O)O)[C@@H](C)O)[C@@H](C)OP(=O)(O)O)C(C)C [GR_pS134-pT524] (6FAM-NLNRST[pS]VPENPKGGGGGKTIVPA[pT]LPQLTP-OH; C-terminus assumed)	0.55 µM
CC(C)C[C@H](N)C(=O)N[C@@H](CCC(=O)O)C(=O)N[C@@H](Cc1ccccc1)C(=O)N[C@@H](CO)C(=O)N[C@@H](CO)C(=O)NCC(=O)N[C@@H](COP(=O)(O)O)C(=O)N1CCC[C@H]1C(=O)NCC(=O)N[C@@H](CCCCN)C(=O)N[C@@H](CCC(=O)O)C(=O)N[C@H](C(=O)N[C@@H](CC(N)=O)C(=O)O)[C@@H](C)O [GR_pS203] (H-LEFSSG[pS]PGKETN-OH; N-terminus assumed)	> 150 µM
CC(C)C[C@H](NC(=O)[C@H](CC(=O)O)NC(=O)[C@H](CO)NC(=O)[C@H](CCCNC(=N)N)NC(=O)[C@H](Cc1c[nH]c2ccccc12)NC(=O)[C@@H]1CCCN1C(=O)[C@H](COP(=O)(O)O)NC(=O)[C@H](CCC(=O)O)NC(=O)[C@H](CC(N)=O)NC(=O)[C@@H](NC(=O)[C@H](CCC(=O)O)NC(=O)[C@H](CCCCN)NC(=O)CN)[C@@H](C)O)C(=O)O [GR_pS211] (H-GKETNE[pS]PWRSDL-OH; N-terminus assumed)	> 150 µM
CC(C)C[C@H](NC(=O)[C@H](CS)NC(=O)[C@H](CC(N)=O)NC(=O)[C@H](CCC(=O)O)NC(=O)[C@@H](N)CC(=O)O)C(=O)N[C@@H](CC(C)C)C(=O)N[C@@H](COP(=O)(O)O)C(=O)N1CCC[C@H]1C(=O)N[C@@H](CC(C)C)C(=O)N[C@@H](C)C(=O)NCC(=O)N[C@@H](CCC(=O)O)C(=O)N[C@@H](CC(=O)O)C(=O)O [GR_pS226] (H-DENCLL[pS]PLAGED-OH; N-terminus assumed)	> 150 µM

same assay, conditions: ratio of Kd values

Structure (SMILES)	fold decrease in binding affinity with 14-3-3ζ relative to GR_pT524-pS617
CSCC[C@H](NC(=O)[C@H](CO)NC(=O)[C@H](CC(C)C)NC(=O)[C@H](COP(=O)(O)O)NC(=O)[C@@H](NC(=O)[C@H](C)NC(=O)[C@H](CCCCN)NC(=O)[C@H](CO)NC(=O)[C@H](CC(C)C)NC(=O)[C@H](CC(=O)O)NC(=O)c1ccc2c(c1)C1(OC2=O)c2ccc(O)cc2Oc2cc(O)ccc21)C(C)C)C(=O)NCC(=O)N[C@@H](CC(C)C)C(=O)N[C@@H](Cc1ccc(O)cc1)C(=O)NCC(=O)NCC(=O)NCC(=O)NCC(=O)NCC(=O)N[C@@H](CC(N)=O)C(=O)N[C@@H](CC(C)C)C(=O)N[C@@H](CC(N)=O)C(=O)N[C@@H](CCCNC(=N)N)C(=O)N[C@@H](CO)C(=O)N[C@H](C(=O)N[C@@H](COP(=O)(O)O)C(=O)N[C@H](C(=O)N1CCC[C@H]1C(=O)N[C@@H](CCC(=O)O)C(=O)N[C@@H](CC(N)=O)C(=O)N1CCC[C@H]1C(=O)N[C@@H](CCCCN)C(=O)O)C(C)C)[C@@H](C)O [GR_pS83-pS134] (6FAM-DLSKAV[pS]LSMGLYGGGGGNLNRST[pS]VPENPK-OH; C-terminus assumed)	at least 15 fold

same assay, conditions: read-out: PKd with 14-3-3ζ (converted)

Structure (SMILES)	Kd
CC[C@H](C)[C@H](NC(=O)[C@H](C)NC(=O)[C@@H](N)CCCCN)C(=O)N[C@H](C(=O)N1CCC[C@H]1C(=O)N[C@@H](C)C(=O)N[C@H](C(=O)N[C@@H](CC(C)C)C(=O)N1CCC[C@H]1C(=O)N[C@@H](CCC(N)=O)C(=O)N[C@@H](CC(C)C)C(=O)N[C@H](C(=O)N1CCC[C@H]1C(=O)NCC(=O)NCC(=O)NCC(=O)NCC(=O)NCC(=O)N[C@@H](CCCNC(=N)N)C(=O)N[C@@H](CO)C(=O)N[C@@H](Cc1ccc(O)cc1)C(=O)N[C@@H](CCCNC(=N)N)C(=O)N[C@@H](CCC(N)=O)C(=O)N[C@@H](CO)C(=O)N[C@@H](COP(=O)(O)O)C(=O)N[C@@H](C)C(=O)N[C@@H](CC(N)=O)C(=O)N[C@@H](CC(C)C)C(=O)N[C@@H](CC(C)C)C(=O)N[C@@H](CS)C(=O)N[C@@H](Cc1ccccc1)C(=O)O)[C@@H](C)O)[C@@H](C)OP(=O)(O)O)C(C)C [GR_T519A] (H-KAIVPA[pT]LPQLTPGGGGGRSYRQS[pS]ANLLCF-OH)	0.0631 µM
CC[C@H](C)[C@H](NC(=O)[C@@H](NC(=O)[C@@H](N)CCCCN)[C@@H](C)O)C(=O)N[C@H](C(=O)N1CCC[C@H]1C(=O)N[C@@H](C)C(=O)N[C@@H](C)C(=O)N[C@@H](CC(C)C)C(=O)N1CCC[C@H]1C(=O)N[C@@H](CCC(N)=O)C(=O)N[C@@H](CC(C)C)C(=O)N[C@H](C(=O)N1CCC[C@H]1C(=O)NCC(=O)NCC(=O)NCC(=O)NCC(=O)NCC(=O)N[C@@H](CCCNC(=N)N)C(=O)N[C@@H](CO)C(=O)N[C@@H](Cc1ccc(O)cc1)C(=O)N[C@@H](CCCNC(=N)N)C(=O)N[C@@H](CCC(N)=O)C(=O)N[C@@H](CO)C(=O)N[C@@H](COP(=O)(O)O)C(=O)N[C@@H](C)C(=O)N[C@@H](CC(N)=O)C(=O)N[C@@H](CC(C)C)C(=O)N[C@@H](CC(C)C)C(=O)N[C@@H](CS)C(=O)N[C@@H](Cc1ccccc1)C(=O)O)[C@@H](C)O)C(C)C [GR_T524A-pS617] (H-KTIVPAALPQLTPGGGGGRSYRQS[pS]ANLLCF-OH)	126 µM
CC[C@H](C)[C@H](NC(=O)[C@@H](NC(=O)[C@@H](N)CCCCN)[C@@H](C)O)C(=O)N[C@H](C(=O)N1CCC[C@H]1C(=O)N[C@@H](C)C(=O)N[C@H](C(=O)N[C@@H](CC(C)C)C(=O)N1CCC[C@H]1C(=O)N[C@@H](CCC(N)=O)C(=O)N[C@@H](CC(C)C)C(=O)N[C@@H](C)C(=O)N1CCC[C@H]1C(=O)NCC(=O)NCC(=O)NCC(=O)NCC(=O)NCC(=O)N[C@@H](CCCNC(=N)N)C(=O)N[C@@H](CO)C(=O)N[C@@H](Cc1ccc(O)cc1)C(=O)N[C@@H](CCCNC(=N)N)C(=O)N[C@@H](CCC(N)=O)C(=O)N[C@@H](CO)C(=O)N[C@@H](COP(=O)(O)O)C(=O)N[C@@H](C)C(=O)N[C@@H](CC(N)=O)C(=O)N[C@@H](CC(C)C)C(=O)N[C@@H](CC(C)C)C(=O)N[C@@H](CS)C(=O)N[C@@H](Cc1ccccc1)C(=O)O)[C@@H](C)OP(=O)(O)O)C(C)C [GR_T529A] (H-KTIVPA[pT]LPQLAPGGGGGRSYRQS[pS]ANLLCF-OH)	0.0501 µM
CC[C@H](C)[C@H](NC(=O)[C@@H](NC(=O)[C@@H](N)CCCCN)[C@@H](C)O)C(=O)N[C@@H](C)C(=O)N1CCC[C@H]1C(=O)N[C@@H](C)C(=O)N[C@H](C(=O)N[C@@H](CC(C)C)C(=O)N1CCC[C@H]1C(=O)N[C@@H](CCC(N)=O)C(=O)N[C@@H](CC(C)C)C(=O)N[C@H](C(=O)N1CCC[C@H]1C(=O)NCC(=O)NCC(=O)NCC(=O)NCC(=O)NCC(=O)N[C@@H](CCCNC(=N)N)C(=O)N[C@@H](CO)C(=O)N[C@@H](Cc1ccc(O)cc1)C(=O)N[C@@H](CCCNC(=N)N)C(=O)N[C@@H](CCC(N)=O)C(=O)N[C@@H](CO)C(=O)N[C@@H](COP(=O)(O)O)C(=O)N[C@@H](C)C(=O)N[C@@H](CC(N)=O)C(=O)N[C@@H](CC(C)C)C(=O)N[C@@H](CC(C)C)C(=O)N[C@@H](CS)C(=O)N[C@@H](Cc1ccccc1)C(=O)O)[C@@H](C)O)[C@@H](C)OP(=O)(O)O [GR_V521A] (H-KTIAPA[pT]LPQLTPGGGGGRSYRQS[pS]ANLLCF-OH)	0.0398 µM
CC[C@H](C)[C@H](NC(=O)[C@@H](NC(=O)[C@@H](N)CCCCN)[C@@H](C)O)C(=O)N[C@H](C(=O)N1CCC[C@H]1C(=O)N[C@@H](C)C(=O)N[C@H](C(=O)N[C@@H](CC(C)C)C(=O)N1CCC[C@H]1C(=O)N[C@@H](CCC(N)=O)C(=O)N[C@@H](CC(C)C)C(=O)N[C@H](C(=O)N1CCC[C@H]1C(=O)NCC(=O)NCC(=O)NCC(=O)NCC(=O)NCC(=O)N[C@@H](CCCNC(=N)N)C(=O)N[C@@H](CO)C(=O)N[C@@H](C)C(=O)N[C@@H](CCCNC(=N)N)C(=O)N[C@@H](CCC(N)=O)C(=O)N[C@@H](CO)C(=O)N[C@@H](COP(=O)(O)O)C(=O)N[C@@H](C)C(=O)N[C@@H](CC(N)=O)C(=O)N[C@@H](CC(C)C)C(=O)N[C@@H](CC(C)C)C(=O)N[C@@H](CS)C(=O)N[C@@H](Cc1ccccc1)C(=O)O)[C@@H](C)O)[C@@H](C)OP(=O)(O)O)C(C)C [GR_Y613A] (H-KTIVPA[pT]LPQLTPGGGGGRSARQS[pS]ANLLCF-OH)	0.0794 µM
